Patent publication US11262348B2, “Cell-based assays for detection of antibodies or other factors that neutralize uptake of lysosomal enzymes” (BIOMARIN PHARMACEUTICAL INC., priority 2015, dated 2022)
Entries after “also recorded” stand apart in the source; their conditions may differ. One block for each compound: values may come before it.

How the values were obtained:
Jurkat cells [1] = assay: Cell-based flow cytometry assay of Alexa488-rhGALNS uptake (screening assay, % SI); set-up: species or system human
Procedure: Cell uptake of rhGALNS is measured using flow cytometry to determine the amount of fluorophore-conjugated rhGALNS taken up by Jurkat cells. Jurkat cells are a non-adherent human T cell line that express CI-MPR, which binds and targets rhGALNS to the lysosome. rhGALNS neutralizing antibodies (NAb) are detected in samples by a decrease in fluorophore-conjugated rhGALNS uptake (calculated as % inhibition) that exceeds the screening cut point (SCP).
For a 1:1 dilution, 60 μL per well of controls were added in duplicate or in quadruplicate for 2 sets into the appropriate wells. Similarly, for a 1:1 dilution of sample, 60 μL per well of patient screening samples were added into the appropriate wells. For a 1:1 dilution for the confirmation assay, 60 μL per well of patient confirmation samples were added in duplicate into the corresponding wells. The plate was covered, wrapped in foil and allowed to incubate overnight for 14 to 20 hours at 2-8° C.
Assay: Prior to the sample incubation step, the cell plates were removed from the CO2 incubator and observed to ensure the cells were healthy and viable. […] After the incubation was completed, the cells were washed in PBS by centrifuging the plate for 6 min at 310×g in a tabletop centrifuge at 14 to 18° C., repeated two to five times as appropriate. After the last wash, the plate was removed from the centrifuge, the cell pellet resuspended in 100 μL viability stain (red fluorescent reactive dye 1:1000 dilution) and tested for viability. Once viability testing was complete, the cells were centrifuged 6 min at 310×g in a tabletop centrifuge at 14 to 18° C.
Percent Signal Inhibition (% SI) is calculated as [% SI=1—mean median fluorescence intensity (MFI) of sample/mean MFI of control×100]. Confirmatory assay data were analyzed as recovery ratio, defined as mean confirmatory assay MFI of sample/mean screening assay MFI of sample. The titer was calculated as the interpolated dilution factor at which the sample crossed the titer cut point determined by linear regression analysis (Microsoft Excel).

Jurkat cells [2] = assay: Flow cytometry uptake of labeled GAA with IGF-II tag; format: cell-based, human; conditions: for inhibition of rhGAA-IGF-II uptake (in words): Jurkat cells (Jurkat and HepG2 not distinguished); for inhibition of uptake: rhGAA-IGF-II uptake into Jurkat cells
Procedure: The assay was also validated for a CI-MPR ligand that is not mannose-6 phosphate. The ability of CI-MPR expressing Jurkat or HepG2 cells were analyzed by flow cytometry for their ability to take up labeled GAA comprising an IGF-II tag, which facilitates binding to the CI-MPR. […] This uptake was inhibited by unlabeled GAA as well as anti-IGFII antibody.

- IC50 (Jurkat cells [1]; Homo sapiens, Jurkat cells): 453 µM
Compound: O=C[C@@H](O)[C@@H](O)[C@H](O)[C@H](O)COP(=O)(O)O [M6P, mannose-6-phosphate, reference compound]
- inhibition of rhGALNS uptake into Jurkat cells (in words) (Jurkat cells [1]): dose dependent effect; also recorded: dose dependently abrogated; also recorded: completely blocked
- inhibition of rhGALNS uptake (Jurkat cells [1]; 0.5M M6P): approximately 32%
- inhibition of rhGALNS uptake (Jurkat cells [1]; 5M M6P): approximately 96%
- inhibition of rhGAA-IGF-II uptake (in words) (Jurkat cells [2]): partial inhibition

Compound: C=C1[C@@H](C)[C@H]2[C@H](Cc3ccccc3)NC(=O)[C@]23OC(=O)/C=C/[C@H](O)CCC[C@@H](C)C/C=C/[C@H]3[C@@H]1O [cytochalasin B, reference compound]
- MFI signal emitted from Alexa488-rhGALNS-treated cells (Jurkat cells [1]; 374 μM cytochalasin B, pretreated 1 hour): 777±4.2

Compound: Cc1cc(-c2ccc(/N=N/c3c(S(=O)(=O)O)cc4cc(S(=O)(=O)O)cc(N)c4c3O)c(C)c2)ccc1/N=N/c1c(S(=O)(=O)O)cc2cc(S(=O)(=O)O)cc(N)c2c1O [trypan blue, reference compound]
- fluorescence of cells treated with Alexa488-labeled anti-CD3 (Jurkat cells [1]; increasing concentrations of trypan blue): reduced
- impact on Alexa488-rhGALNS MFI values (Jurkat cells [1]; trypan blue up to 0.4%): no impact

Compound: IGF-II: CI-MPR ligand tested as a possible neutralizing factor
- inhibition of rhGALNS uptake into Jurkat cells (in words) (Jurkat cells [1]): partial inhibition
- inhibition of uptake (Jurkat cells [2]; 0.6M excess IGF-II): approximately 58%
- inhibition of uptake (Jurkat cells [2]; 50M excess IGF-II): approximately 95%
- inhibition of rhGAA-IGF-II uptake (in words) (Jurkat cells [2]): dose dependent effect

Compound: unlabeled GAA: unlabeled acid alpha glucosidase used as a competitor of GAA-IGFII uptake
- inhibition of rhGAA-IGF-II uptake (in words) (Jurkat cells [2]): inhibited
